Measurements reported in the COVID Moonshot data (paper PMC7615835).
Several values for one entry are separate records, joined by “and”; a condition that tells them apart may be missing. Equal entries are not always repeated.

target: SARS-CoV-2 Main Protease (SARS-CoV-2) (UniProt P0DTD1)

SMILES | IC50
CS(=O)(=O)Cc1ccc(N(C(=O)c2cocn2)C(C(=O)NCCc2cccc(F)c2)c2cccnc2)cc1 (stereo unspecified) | 27.7 µM
CCNC(=O)CN1CC(C(=O)Nc2cncc3cc(S(C)(=O)=O)ccc23)c2cc(Cl)ccc2C1=O (stereo unspecified) | 0.0675 µM and 0.134 µM
C=CC(=O)N(c1ccc(C(C)(C)C)cc1)C(C(=O)NC)c1cccnc1 (stereo unspecified) | 35.7 µM
O=C(Cc1cc(Cl)cc(Nc2ccc(F)cc2Br)c1)Nc1cncc2ccccc12 | 2.04 µM
COC[C@@]1(C(=O)Nc2cncc3ccccc23)CCOc2cc(Cl)c(Cl)cc21 (stereo in doubt) | 13 µM and 21.9 µM
O=C(Nc1cccnc1)[C@@H](c1ccccc1)N1Cc2ccccc2C1=O (stereo in doubt) | > 99.5 µM
O=C1CN(C(=O)Cc2cccc(Cl)c2)Cc2ccccc21 | > 99.5 µM
CC(C)(C)c1ccc(N(C(=O)c2cnon2)C(C(=O)NCCc2cccc(F)c2)c2cccnc2)cc1 (stereo unspecified) | 8.41 µM
CC(C)(C)c1ccc(N(C(=O)c2nc3cnccc3s2)C(C(=O)NCCc2cccc(F)c2)c2cccnc2)cc1 (stereo unspecified) | > 99.5 µM
O=C(NCCc1cccc(F)c1)C(c1cccnc1)N(C(=O)c1cnc[nH]1)C1CCN(c2ccccc2)C1 (stereo unspecified) | > 99 µM
NCc1cn(CC(=O)N(Cc2ccsc2)c2ccc(-c3ccccc3)cc2)nn1 | > 99.5 µM
CC(C)(C)c1ccc(N(C(=O)c2nc3c(s2)CCC3)C(C(=O)NCCc2cccc(F)c2)c2cccnc2)cc1 (stereo unspecified) | > 99.5 µM
O=C(NCCc1cccc(F)c1)C(c1cccnc1)N(C(=O)c1cocn1)C1CCN(c2ccccc2F)C1 (stereo unspecified) | > 99.5 µM
C[C@H](Nc1cc(Cl)cc(CC(=O)Nc2cncc3ccccc23)c1)c1ccc([N+](=O)[O-])cc1 (stereo in doubt) | 1.45 µM
COc1nccnc1C(C(=O)NCCc1cccc(F)c1)N(C(=O)c1cocn1)c1ccc(C(C)(C)C)cc1 (stereo unspecified) | 94.9 µM
Clc1cccc2c1OCCC2Nc1ncccn1 (stereo unspecified) | > 99.5 µM
Cc1ccncc1NC(=O)CN(C)S(=O)(=O)c1cccc2cccnc12 | > 99 µM
Cc1c(Cl)ccc2c1[C@H](C(=O)Nc1cncc3ccccc13)CCO2 (stereo in doubt) | 3.67 µM
COc1ccccc1OCCC(=O)Nc1cncc2ccccc12 | 93.6 µM and > 99.5 µM
COC(C)(C)/C=C/C[C@@H](C)[C@H]1CC[C@@]2(C)[C@@H]3[C@@H](O[C@@H]4O[C@H](CO)[C@@H](O)[C@H](O)[C@H]4O)C=C4[C@@H](CC[C@H](O)C4(C)C)[C@]3(C=O)CC[C@]12C (stereo in doubt) | > 99.5 µM
COC[C@]1(C(=O)Nc2cncc3ccccc23)CCOc2cc(Cl)c(Cl)cc21 (stereo in doubt) | 2.38 µM and 4.36 µM
CNC(=O)C1(CC(=O)Nc2cncc3ccccc23)CCOc2ccc(Cl)cc21 (stereo unspecified) | 30.7 µM
CC(C)(C)OC(=O)[C@H]1CCCN1c1cc(Cl)cc(CC(=O)Nc2cncc3ccccc23)c1 (stereo in doubt) | 2.52 µM
Cc1cc(=O)oc2cc(Nc3cc(Cl)cc(CC(=O)Nc4cncc5ccccc45)c3)ccc12 | 2.12 µM

SMILES | IC50
O=C(COCC(=O)N1CCCC1)NC(C(=O)Nc1cncc2ccccc12)c1cccc(Cl)c1 (stereo unspecified) | 6.35 µM and 8.47 µM
O=C(Cc1cc(Cl)cc(Nc2ccc(-n3cccn3)cc2)c1)Nc1cncc2ccccc12 | 2.12 µM
O=C(Cc1cc(Cl)cc(Nc2ccc(Br)c(C(F)(F)F)c2)c1)Nc1cncc2ccccc12 | 2.31 µM
NC(=O)CN1CCCN(C(=O)CCSc2ccc(F)cc2)CC1 | > 99.5 µM
C=CC(=O)N(c1ccc(C(C)(C)C)cc1)C(C(=O)NCCc1cccc(F)c1)c1cncc(C#N)c1 (stereo unspecified) | 7.48 µM
O=C(Cc1cccc(Cl)c1)Nn1cnc2ccccc2c1=O | 8.65 µM
O=C(Cc1cccc(Cl)c1)Nc1cncn1-c1ccccc1 | > 99.5 µM
O=C(NNc1nc2cccnc2s1)c1ccc2ccncc2c1 | > 99.5 µM
CNC(=O)CN1Cc2ccc(Cl)cc2C2(CCN(c3cncc4c3CCCC4)C2=O)C1 (stereo unspecified) | 0.258 µM
CCN(C(=O)c1ccco1)C(C(=O)NCCc1cccc(F)c1)c1cccnc1 (stereo unspecified) | > 99.5 µM
COc1cc(C(=O)N(c2ccc(C(C)(C)C)cc2)C(C(=O)NCCc2cccc(F)c2)c2cccnc2)sn1 (stereo unspecified) | > 99.5 µM
O=C(Cc1cc(Cl)cc(NC23CC4CC(CC(O)(C4)C2)C3)c1)Nc1cncc2ccccc12 | 2.87 µM
CC(C)OCc1cc(C(=O)N2CCC(C3CCNC3)CC2)ccc1F (stereo unspecified) | > 99.5 µM
CCC(=O)Nc1ccc(N(Cc2ccccc2)C(=O)Nn2nnc3ccccc32)cc1 | 3.59 µM
O=C(Cc1cc(Cl)cc(NCc2cc(F)ccc2Br)c1)Nc1cncc2ccccc12 | 1.88 µM
CC(C)(C)c1ccc(N(C(=O)c2ccc(O)c(=O)o2)C(C(=O)NCCc2cccc(F)c2)c2cccnc2)cc1 (stereo unspecified) | 76.5 µM
O=C(Cc1cc(Cl)cc(Nc2cc(Cl)ccc2OC(F)(F)F)c1)Nc1cncc2ccccc12 | 2.12 µM
Cc1sc(Nc2cc(Cl)cc(CC(=O)Nc3cncc4ccccc34)c2)nc1-c1ccc(Cl)cc1 | 2.82 µM
O=C(Cc1cc(Cl)cc(Nc2ccc(Oc3ccc(Cl)cc3)cc2)c1)Nc1cncc2ccccc12 | 2.44 µM
O=C(NC(c1ccccc1)c1ccccc1)[C@@H]1CN(C(=O)CCl)CCN1S(=O)(=O)c1ccsc1 (stereo in doubt) | 0.635 µM
Cc1ccc(N(Cc2cscn2)C(=O)Cc2cncc3ccccc23)cc1 | 8.09 µM
O=C(CCl)N1CCCN(S(=O)(=O)c2c(F)cccc2F)CC1 | 20.2 µM
C[C@H](Nc1cc(Cl)cc(CC(=O)Nc2cncc3ccccc23)c1)c1cccc2ccccc12 (stereo in doubt) | 3.53 µM
COCCNC(=O)[C@@H](c1ccccc1)N1Cc2ccccc2C1=O (stereo in doubt) | > 99.5 µM

SMILES | IC50
CC1CN(C(=O)c2cc(=O)[nH]c3ccccc23)CCN1c1cccc(Cl)c1 (stereo unspecified) | 14.7 µM
O=C1O[C@@]2(CCOc3ccc(Cl)cc32)C(=O)N1c1cncc2ccccc12 (stereo in doubt) | > 99.5 µM
Cn1cccc(C(C(=O)NCCc2cccc(F)c2)N(C(=O)c2cocn2)c2ccc(C(C)(C)C)cc2)c1=O (stereo unspecified) | > 99.5 µM
N#Cc1ccc(Nc2cc(Cl)cc(CC(=O)Nc3cncc4ccccc34)c2)cc1Br | 2.16 µM
O=C(Cc1cc(Cl)cc(Nc2ccc(Br)cc2O)c1)Nc1cncc2ccccc12 | 3.89 µM
O=C(CCl)N1CCCN(S(=O)(=O)c2cc(F)ccc2F)CC1 | 12.1 µM
Cn1cncc1CN(C(=O)CC1(C(=O)Nc2cncc3ccccc23)CCOc2ccc(Cl)cc21)C1CC1 (stereo unspecified) | 6.1 µM
Cc1ccc(C(Cc2cnn(C)c2)C(=O)Nc2n[nH]c3ccccc23)cc1 (stereo unspecified) | > 99.5 µM
O=C(NCCc1cccc(F)c1)C(c1cccnc1)N(C(=O)c1cocn1)c1ccc2c(c1)CCOC2 (stereo unspecified) | > 99.5 µM
O=C(NC(c1ccccc1)c1ccccc1)[C@H]1CN(C(=O)CCl)CCN1S(=O)(=O)c1ccsc1 (stereo in doubt) | 0.832 µM
Cc1cccc2nc(NC3CCN(c4ccc5nncn5n4)C3)sc12 (stereo unspecified) | > 99.5 µM
O=C(CN(C(=O)Cn1ccnn1)c1ccc(-c2ccccn2)cc1)N1CCNCC1 | > 99.5 µM
Nc1nn(C(=O)Cc2cccc(Cl)c2)c2ccccc12 | > 99.5 µM
O=C(NCCc1cccc(F)c1)C(c1cccnc1)N(C(=O)c1cnc[nH]1)C1CCC2OCCC2C1 (stereo unspecified) | > 99 µM
Cc1cn2nc(NCc3ccc4ncccc4c3)sc2n1 | > 99.5 µM
Cc1cc2c(N)nc(=O)n(CC(=O)Nc3cccc(Cl)c3)c2s1 | > 99.5 µM
O=C(COCC1(C(=O)Nc2cncc3ccccc23)CCOc2ccc(Cl)cc21)Nc1ncc[nH]1 (stereo unspecified) | 1.99 µM
CC1(CS(=O)(=O)N2Cc3ccc(Cl)cc3C(C(=O)Nc3cncc4cc(S(C)(=O)=O)ccc34)C2)CS(=O)(=O)C1 (stereo unspecified) | 0.0836 µM and 0.147 µM
CCc1cc(Br)ccc1Nc1cc(Cl)cc(CC(=O)Nc2cncc3ccccc23)c1 | 3.15 µM
O=C(Cc1cc(Cl)cc(NCc2cccc(Br)c2)c1)Nc1cncc2ccccc12 | 1.48 µM
CC(C)(C#N)CS(=O)(=O)N1Cc2ccc(Cl)cc2C2(CCN(c3cncc4ccccc34)C2=O)C1 (stereo unspecified) | 0.448 µM
Cc1ccncc1NC(=O)C(C)c1cccc(Cl)c1 (stereo unspecified) | 27.2 µM and 25.2 µM
COc1cc(CNc2cc(Cl)cc(CC(=O)Nc3cncc4ccccc34)c2)cc(OC)c1 | 2.87 µM
COc1ccc2c(c1)c(N)nn2C(=O)Cc1cccc(Cl)c1 | > 99.5 µM

SMILES | IC50
N#Cc1nccn1CCCc1cccc(Cl)c1 | > 99.5 µM
CC1(CS(=O)(=O)N2Cc3ccc(Cl)cc3C3(CCN(c4cncc5ccccc45)C3=O)C2)CC1 (stereo unspecified) | 0.265 µM
Cc1cc2c(N3CCc4[nH]c5ccccc5c4C3)nccn2n1 | > 99.5 µM
CNC1CCc2c(NC(=O)C3CCOc4ccc(Cl)cc43)cncc21 (stereo unspecified) | > 99.5 µM
C=CC(=O)N(c1ccc(C(C)(C)C)cc1)C(C(=O)NCc1ccc(F)cc1)c1cccnc1 (stereo unspecified) | 23.3 µM
C=CC(=O)NCC(=O)N(Cc1ccccc1)C[C@H](O)c1cccs1 (stereo in doubt) | > 99.5 µM
Cc1ccncc1NC(=O)Cc1cc(Cl)cc(/C=C(/c2ccccc2)C(F)(F)F)c1 | 22.8 µM
N#Cc1cc(Cl)cc(NC(=O)Nc2cccnc2)c1 | > 99 µM
COc1ccc(N(C(=O)c2ccco2)C(C(=O)NCCc2cccc(F)c2)c2cccnc2)cc1NC(=O)C1CCCCC1 (stereo unspecified) | 62.7 µM
Cn1ncc2cc(N(C(=O)c3cnc[nH]3)C(C(=O)NCCc3cccc(F)c3)c3cccnc3)ccc21 (stereo unspecified) | > 99 µM
N#CC1CN(S(=O)(=O)NCc2ccc(Cl)cc2CC(=O)Nc2cncc3ccccc23)C1 | 0.231 µM
Cc1ccncc1NC(=O)Cc1cc(Cl)cc(NS(C)(=O)=O)c1 | 21.8 µM
COc1cc(C)ccc1N(C(=O)c1ccco1)C(C(=O)NCCc1cccc(F)c1)c1cccnc1 (stereo unspecified) | > 99.5 µM
Cc1ccncc1NC(=O)Cc1cc(Cl)cc(-c2ccc(S(C)(=O)=O)cc2Cl)c1 | > 99.5 µM
O=C(Nc1cnc2ccccn12)C1CCOc2ccc(Cl)cc21 (stereo unspecified) | 3.26 µM
O=C(NCCc1cccc(F)c1)C(c1cccnc1)N(C(=O)c1cocn1)c1ccc(-c2nnc3n2CCC3)cc1 (stereo unspecified) | > 99.5 µM
O=C(Nn1nnc2ccccc21)C(Cc1cccc(Cl)c1)c1ccc(N2CCCCC2=O)cc1 (stereo unspecified) | 50.9 µM
Cc1cc(NC(=O)C2CCOc3ccc(Cl)cc32)ncc1N (stereo unspecified) | > 99.5 µM
Cc1[nH]ncc1CC(=O)Nc1cccc(Cl)c1 | 54.6 µM
COc1ccc(CNc2cc(Cl)cc(CC(=O)Nc3cncc4ccccc34)c2)c(OC)c1 | 3.37 µM
CC(C)(C)c1ccc(N(C(=O)c2c[nH]c(=O)[nH]2)C(C(=O)NCCc2cccc(F)c2)c2cccnc2)cc1 (stereo unspecified) | 15.9 µM
O=C(Cc1cccc(Cl)c1)Nc1cncn2cnnc12 | > 99.5 µM
C=CC(=O)N(c1ccc(C2(C)CC2)cc1)C(C(=O)Nc1cccc(CC)c1)c1cccnc1 (stereo unspecified) | > 99 µM
C=CC(=O)N(c1cc(C(C)(C)C)on1)C(C(=O)Nc1cccc(CC)c1)c1cccnc1 (stereo unspecified) | > 99 µM
